Literature values in patent publication US20080269311A1, “Combination of Dpp-Iv Inhibitors and Compounds Modulating 5-Ht3 and/or 5-Ht4 Receptors” (priority 2004, published 2008).

Target: T1, 5-HT3 receptor subtype (Homo sapiens, UniProt P46098)
T1 sequence (P46098 24-478): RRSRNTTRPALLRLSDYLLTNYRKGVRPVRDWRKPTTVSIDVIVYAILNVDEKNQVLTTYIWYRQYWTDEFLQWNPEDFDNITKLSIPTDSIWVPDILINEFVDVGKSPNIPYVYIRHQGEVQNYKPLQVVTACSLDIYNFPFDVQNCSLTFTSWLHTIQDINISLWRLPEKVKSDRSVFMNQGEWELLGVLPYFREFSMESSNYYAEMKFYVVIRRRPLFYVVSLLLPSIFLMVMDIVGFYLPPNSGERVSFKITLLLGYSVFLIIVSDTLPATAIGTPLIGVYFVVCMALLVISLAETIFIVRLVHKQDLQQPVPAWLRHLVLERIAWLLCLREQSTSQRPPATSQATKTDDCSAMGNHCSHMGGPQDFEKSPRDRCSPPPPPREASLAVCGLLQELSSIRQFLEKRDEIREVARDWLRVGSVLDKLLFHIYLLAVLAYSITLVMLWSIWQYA

SMILES: CCCCCNC(=N)NN=Cc1c[nH]c2ccc(OC)cc12 [Tegaserod, 3-(5-methoxy-1H-indol-3-yl-methylene)-N-pentylcarbazimidamide]
- binding to or stimulation of the 5-HT3 receptor subtype (selectivity): does neither bind to nor stimulate
